These results are taken from US20180092947A1, “L-MYC Expression Maintains Self Renewal and Prolongs Multipotency of Primary Human Neural Stem Cells” (priority 2016, published 2018).

This test concerns U251 human glioma cells. Put plainly: In vitro cytotoxicity assay, CPT-11 alone or with hCElm6 (CellTiter-Glo). The format is cell-based. As to conditions: irinotecan 0-100 μM for 4 hours, then 96 hours drug-free, conditioned medium from CE-expressing LM-NSC008 cells. From the text: To explore the therapeutic potential of LM-NSC008 cells, we characterized their migration to tumor-conditioned media in vitro. […] We performed in vitro cytotoxicity assays using human U251 glioma cells and various concentrations of irinotecan alone or in combination with CE derived from LM-NSC008 cells adenovirally transduced to express hCElm6. We observed enhanced irinotecan toxicity (500-fold) in the presence of hCElm6 in the culture media, when compared with CPT-11 alone. CE (hCElm6) activity was measured at 995 nmol/min/ml in the conditioned media derived from LM-NSC008 cells prior to cytotoxicity experiment (FIG. 2D).
Human U251 glioma cell line was used in in vitro cytotoxicity assays as described previously (Metz et al., 2013). Briefly, cells were placed into 96-well plates (5,000 cells per well, in triplicate) in […] of culture media per well and cultured for 24 hours. Irinotecan (CPT-11), diluted in control culture medium or conditioned medium from CE-expressing LM-NSC008 cells, was then added to final concentrations of 0-100 μM. Cells were incubated with irinotecan for 4 hours, after which medium was aspirated and replaced with drug-free fresh medium, and cells were grown for an additional 96 hours. […]
(In general: Cellular ATP, detected with luciferase, serves as a proxy for viable cell number.)

Consider `CCc1c2c(nc3ccc(OC(=O)N4CCC(N5CCCCC5)CC4)cc13)-c1cc3c(c(=O)n1C2)COC(=O)[C@]3(O)CC` [irinotecan], for which the “enhanced irinotecan toxicity in the presence of hCElm6 compared with CPT-11 alone” value is recorded as 500 fold.
